“Also recorded” adds a separate entry of the source. Values belong to the molecule of their own block, whether it stands above or below them. Bridge positions count the residues as written; N and C are the ends. Peptide text beside a SMILES is read from it.
Key:
Chymotrypsin = Chymotrypsin (Bos taurus, UniProt P00766); assay: Chymotrypsin inhibition assay; assay type: biochemical
Procedure: Chymotrypsin (10 μl from 0.1 μM stock solution in 1 mM HCl) was added to the wells of a microtitre plate containing substrate (Succinyl–Ala–Ala–Pro–Phe–NHMec, obtained from Bachem, U.K.) (50 μM) and synthetic peptide replicates (0.1–100 μM) in 10 mM phosphate buffer, pH 7.4, containing 2.7 mM KCl and 137 mM NaCl (final volume 210 μl).
(§1) Each determination was carried out in triplicate. The rate of hydrolysis of substrate was monitored continuously, at 37°C, by measuring the rate of increase in fluorescence due to production of 7-amino-4-methylcoumarin (NH2Mec) at 460 nm (excitation 360 nm) in a CytoFluor® multi-well plate reader Series 4000 spectrofluorimeter.
For modest binding inhibition, we first calculated the IC50 from a plot of % inhibition against inhibitor concentration [I]. The data points were fitted to the resulting curve, by non-linear regression analysis, using GraphPad Prism. The IC50 values were then converted into Ki values using the eqn (3), to account for the presence of competing substrate. (3) Ki = IC50/{1 + ([S]/KM)}
This kinetic treatment was applied to the inhibition of tryptase by OSTI and chymotrypsin by [Phe^9]-OSTI. […] The Michaelis constant KM for tryptase against Boc-Phe-Ser-Arg-NHMec was determined to be 227.2 μM, while KM for chymotrypsin against Succinyl–Ala–Ala–Pro–Phe–NHMec was determined to be 38.4 μM. […]

Tryptase = target: T1, Tryptase (Homo sapiens, UniProt Q15661); assay: Tryptase inhibition assay; assay type: biochemical
T1 construct: purchased Calbiochem, U.K
Procedure: Tryptase (2.5 μl from 1 mg/ml stock solution, Calbiochem, U.K.), was added to the wells of a microtitre plate containing substrate (Boc-Phe-Ser-Arg-NHMec, obtained from Bachem, U.K.) (50 μM) and synthetic peptide replicates (0.5, 1, 2 and 4 mM) in tryptase assay buffer, pH 7.6, containing 0.05 M Tris, 0.15 M NaCl and 0.2% (w/v) PEG 6000 (final volume 210 μl).
For modest binding inhibition, we first calculated the IC50 from a plot of % inhibition against inhibitor concentration [I]. The data points were fitted to the resulting curve, by non-linear regression analysis, using GraphPad Prism. The IC50 values were then converted into Ki values using the eqn (3), to account for the presence of competing substrate [15]. (3) Ki = IC50/{1 + ([S]/KM)}
In inhibition studies with both these proteases, their respective substrates were used at a fixed concentration [S] of 50 μM. […] The determination of these KM values was carried out using identical buffer and temperature conditions (37°C) as those employed in the inhibition studies with the two synthetic amphibian peptides.

Trypsin = target: T2, Trypsin (Bos taurus, UniProt P00760); assay: Trypsin inhibition assay (synthetic peptides, Morison plot); assay type: biochemical; conditions: substrate Phe-Pro-Arg-NHMec 50 μM, 37°C
T2 construct: gene PRSS1
T2 sequence (P00760 24-246): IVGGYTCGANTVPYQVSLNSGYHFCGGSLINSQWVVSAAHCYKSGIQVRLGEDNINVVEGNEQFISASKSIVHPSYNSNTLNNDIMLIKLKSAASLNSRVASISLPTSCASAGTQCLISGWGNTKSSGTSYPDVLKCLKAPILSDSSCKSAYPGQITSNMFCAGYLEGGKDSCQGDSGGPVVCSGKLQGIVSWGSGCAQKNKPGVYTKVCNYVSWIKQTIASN
Procedure: Trypsin (10 μl from 0.1 μM stock solution in 1 mM HCl), was added to the wells of a microtitre plate containing substrate (Phe-Pro-Arg-NHMec) (50 μM) and synthetic peptide replicates (0.1–100 μM) in 10 mM phosphate buffer, pH 7.4, containing 2.7 mM KCl and 137 mM NaCl (final volume 210 μl).
as §1
For potent, slow, tight-binding inhibition, the Morison equation was used to determine the inhibition constant Ki(app) by fitting the kinetic data to the equation below: (1) Vi/V0 = 1 − {[E]0 + [I] + Ki(app) − ([E]0 + [I] + Ki(app))^2−4 × [E]0 × [I]/2 × [E]0} […]
This kinetic treatment was used for the inhibition of trypsin by OSTI. Since the inhibition studies were performed in the presence of competing substrate, the true Ki value was calculated from Ki(app) using eqn (2). For trypsin, a fixed substrate concentration [S] of 50 μM was used, for these inhibition studies and in a separate experiment (performed using identical buffer and temperature conditions),a value of 73.29 μM was determined for the Michaelis constant KM, for substrate hydrolysis in the absence of OSTI. […]

[1] = Determination of peptide secondary structures using CD analysis; assay type: physicochemical
Procedure: CD measurements were performed with a JASCO J-815 CD spectrometer (Jasco, Essex, U.K.) at room temperature (20–25°C). Each peptide was dissolved in (a) water and (b) 50% (v/v) trifluoroethanol (TFE)-water to reach a concentration of 50 μM before being transferred and measured in a 0.1 cm high precision quartz cell (Hellma Analytics, Essex, U.K.). The wavelength used in CD spectrometer was from 190 to 240 nm with a scanning speed of 200 nm/min, bandwidth and data pitch are 1 and 0.5 nm respectively. CD data are expressed as the mean molar ellipticity [θ] in deg.cm^2.dmol^−1 in corresponding wavelength (nm), which is calculated using the measured ellipticity (θ, in medg) with the equation [θ] = θ/(10 × c × l), ‘c’ refers to the molar concentration of the sample (mol/l) and the term ‘l’ is the cuvette path length (cm). DichroWeb webserver (http://dichroweb.cryst.bbk.ac.uk/html/home.shtml) was used to estimate the α-helix and β-sheet content.
Figure 8 Circular dichroism spectra of OSTI and [Phe^9]-OSTI The CD spectra recorded for OSTI and [Phe^9]-OSTI (100 μM) in (A) 10 mM ammonium acetate water solution and (B) 50% 2,2,2-TFE/10 mM ammonium acetate water solution.

chymase = conditions: Lineweaver–Burk double-reciprocal plot; ref [24]; cited from earlier work
Source text: Tryptase and chymase are atypical serine proteases that are synthesized, stored and released by mast cells. Due to their close involvement in the pathogenesis of inflammation and some other diseases, there have been reports of BBIs possibly having utility in the treatment of such conditions.

[2] = 50% TFE-water, CD 190–240 nm, room temperature (20–25°C), DichroWeb
[3] = aqueous solution, CD 190–240 nm, room temperature (20–25°C), DichroWeb

T1 sequence (Q15661 31-275): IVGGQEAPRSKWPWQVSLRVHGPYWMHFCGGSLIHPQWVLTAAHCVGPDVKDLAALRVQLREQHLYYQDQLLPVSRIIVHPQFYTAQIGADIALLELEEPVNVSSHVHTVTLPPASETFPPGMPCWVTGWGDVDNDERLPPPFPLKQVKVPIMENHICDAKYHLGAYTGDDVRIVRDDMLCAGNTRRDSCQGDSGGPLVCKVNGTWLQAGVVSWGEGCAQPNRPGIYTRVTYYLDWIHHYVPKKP

Molecule: CC[C@H](C)[C@@H]1NC(=O)[C@H](CO)NC(=O)[C@H](Cc2ccccc2)NC(=O)[C@H]([C@@H](C)O)NC(=O)[C@H](Cc2c[nH]c3ccccc23)NC(=O)[C@@H](NC(=O)CNC(=O)[C@H](CCCCN)NC(=O)[C@H](CC(C)C)NC(=O)[C@H](C)NC(=O)[C@H](C)N)CSSC[C@@H](C(=O)N[C@@H](Cc2ccccc2)C(N)=O)NC(=O)[C@@H]2CCCN2C(=O)[C@H](CCCCN)NC(=O)[C@@H]2CCCN2C(=O)[C@@H]2CCCN2C1=O [[Phe^9]-OSTI, AALKGCWTFSIPPKPCF-amide] (H-AALKGCWTFSIPPKPCF-NH2; disulfide 6-16)
- Ki (Chymotrypsin; substrate Succinyl–Ala–Ala–Pro–Phe–NHMec 50 μM, 10 mM phosphate buffer pH 7.4, 2.7 mM KCl, 137 mM NaCl, 37°C, from IC50 with KM 38.4 μM, mean ± S.E.M. of three independent experiments, each performed in duplicate): 1 ± 0.1 µM

- Km (Tryptase; substrate of tryptase, identical buffer and temperature conditions (37°C), read-out: Michaelis constant KM, tryptase): 227 µM
Molecule: Boc-Phe-Ser-Arg-NHMec [fluorogenic tryptase substrate, reference compound]

Molecule: Succinyl–Ala–Ala–Pro–Phe–NHMec [fluorogenic chymotrypsin substrate, reference compound]
- Km (Chymotrypsin; substrate of chymotrypsin, identical buffer and temperature conditions (37°C), read-out: Michaelis constant KM, chymotrypsin): 38.4 µM

Molecule: CC[C@H](C)[C@@H]1NC(=O)[C@H](CO)NC(=O)[C@H](CCCCN)NC(=O)[C@H]([C@@H](C)O)NC(=O)[C@H](Cc2c[nH]c3ccccc23)NC(=O)[C@@H](NC(=O)CNC(=O)[C@H](CCCCN)NC(=O)[C@H](CC(C)C)NC(=O)[C@H](C)NC(=O)[C@H](C)N)CSSC[C@@H](C(=O)N[C@@H](Cc2ccccc2)C(N)=O)NC(=O)[C@@H]2CCCN2C(=O)[C@H](CCCCN)NC(=O)[C@@H]2CCCN2C(=O)[C@@H]2CCCN2C1=O [OSTI, AALKGCWTKSIPPKPCF-amide] (H-AALKGCWTKSIPPKPCF-NH2; disulfide 6-16; N-terminus assumed)
- tryptase inhibition (in words) (Tryptase; progress curves, OSTI 0–17.4 μM): moderate inhibitor
- inhibition kinetics / mechanism from progress curves (Trypsin): reversible, slow-binding kinetics; also recorded: two-step complexing mechanism
- β-sheet secondary structure (in words) ([1]; 50% TFE-water, CD): low percentage of β-sheet secondary structure
- random coil content [1, 2]: 47%
- α-helix content [1, 2]: 8%
- β-sheet content [1, 2]: 45%
- canonical β-turn motif ([1]; aqueous solution, CD): did not display canonical β-turn motif
- random coil content [1, 3]: 42%
- β-sheet content [1, 3]: 51%

B1: soybean BBI: soybean Bowman–Birk protease inhibitor, two-headed protease inhibitor (protein, UniProt P01055 40-110, looked up)
Bowman-Birk type proteinase …: DDESSKPCCDQCACTKSNPPQCRCSDMRLNSCHSACKSCICALSYPAQCFCVDITDFCYEPCKPSEDDKEN
- mechanism of chymase inhibition (chymase): non-competitive mechanism
